# Data published in publication PMC9298352, “Design, Synthesis and Structural Analysis of Glucocerebrosidase Imaging Agents” (Chemistry (Weinheim an Der Bergstrasse, Germany), 2021).
# Tests used:
# [1] = target: T1, human GBA2 (from lysates of GBA2 overexpressed cells) (Homo sapiens, UniProt Q9HCG7); experiment: In vitro apparent IC50, fluorogenic substrate assay on GBA2 in lysates of overexpressing cells; type: biochemical
# T1 construct: expressed in transfected cells; host or cells: HEK293T
# T1 sequence (Q9HCG7 1-927): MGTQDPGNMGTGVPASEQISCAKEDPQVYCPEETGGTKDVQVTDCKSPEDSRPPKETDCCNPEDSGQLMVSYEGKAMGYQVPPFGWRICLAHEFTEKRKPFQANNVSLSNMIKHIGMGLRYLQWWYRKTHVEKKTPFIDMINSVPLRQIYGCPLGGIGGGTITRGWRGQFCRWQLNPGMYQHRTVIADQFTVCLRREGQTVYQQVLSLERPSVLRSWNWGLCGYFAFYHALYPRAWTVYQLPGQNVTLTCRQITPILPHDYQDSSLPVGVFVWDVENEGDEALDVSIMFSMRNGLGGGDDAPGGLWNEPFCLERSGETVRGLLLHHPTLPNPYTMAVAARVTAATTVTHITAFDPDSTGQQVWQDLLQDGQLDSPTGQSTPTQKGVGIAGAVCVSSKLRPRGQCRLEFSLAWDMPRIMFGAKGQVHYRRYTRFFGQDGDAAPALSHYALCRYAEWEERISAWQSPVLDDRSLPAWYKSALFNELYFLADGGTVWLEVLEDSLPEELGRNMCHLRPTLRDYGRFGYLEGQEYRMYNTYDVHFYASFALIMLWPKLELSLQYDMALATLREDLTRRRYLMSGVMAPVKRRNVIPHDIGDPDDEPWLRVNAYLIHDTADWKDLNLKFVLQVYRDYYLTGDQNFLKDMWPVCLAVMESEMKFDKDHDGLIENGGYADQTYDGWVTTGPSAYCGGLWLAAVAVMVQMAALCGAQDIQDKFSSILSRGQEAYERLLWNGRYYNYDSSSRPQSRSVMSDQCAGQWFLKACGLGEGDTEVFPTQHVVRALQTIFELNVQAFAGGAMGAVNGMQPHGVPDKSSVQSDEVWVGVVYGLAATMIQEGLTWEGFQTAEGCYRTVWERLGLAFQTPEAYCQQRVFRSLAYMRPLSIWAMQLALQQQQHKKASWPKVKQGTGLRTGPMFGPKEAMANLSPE
# Procedure: All assays were performed in duplicate sets, each with 3 technical replicates at each inhibitor concentration. DMSO concentration was kept at 0.5 %–1 % (v/v) in all assays during incubation with compounds. In vitro apparent IC50 values were calculated by fitting data with [inhibitor] vs. response‐various slope (four parameters) function using Graphpad Prism 7.0 software. Average values and standard deviations were calculated from the two sets.
# [2] = target: T2, rhGBA (Homo sapiens, UniProt P04062); experiment: rhGBA titration with constant ABP 6 and ABP 9 (gel-based labelling); type: biochemical; conditions: ABP 150 nM, rhGBA 500–0.01 nM, 37 °C, 30 mins
# T2 construct: made in house; host or cells: insect-baculovirus expression vector system (BEVS)
# T2 sequence (P04062 40-536): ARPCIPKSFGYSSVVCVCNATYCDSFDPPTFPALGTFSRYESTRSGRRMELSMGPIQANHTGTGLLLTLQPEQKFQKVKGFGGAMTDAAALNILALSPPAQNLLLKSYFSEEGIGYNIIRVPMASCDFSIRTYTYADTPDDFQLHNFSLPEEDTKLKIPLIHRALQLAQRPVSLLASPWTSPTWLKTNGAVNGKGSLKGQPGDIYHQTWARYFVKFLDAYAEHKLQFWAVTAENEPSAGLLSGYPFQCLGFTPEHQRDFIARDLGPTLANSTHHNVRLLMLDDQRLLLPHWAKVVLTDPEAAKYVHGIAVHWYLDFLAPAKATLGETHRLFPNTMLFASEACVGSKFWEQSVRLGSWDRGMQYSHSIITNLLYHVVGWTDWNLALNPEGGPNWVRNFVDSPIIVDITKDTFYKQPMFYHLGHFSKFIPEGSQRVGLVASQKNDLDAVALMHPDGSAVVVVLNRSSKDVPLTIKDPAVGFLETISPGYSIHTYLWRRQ
# Procedure: Maximum‐likelihood/σA weighted (2Fo–Fc) electron density map contoured to 1.0 σ (a=1.31 e^−/Å^3). […] Fluorescently labelled rhGBA visualized by Cy5 fluorescent readout. D=denatured protein sample.
# rhGBA produced in BEVS[58] was prepared at 500, 250, 100, 50, 10, 1, 0.1 and 0.01 nM in 150 mM McIlvaine buffer pH 5.2 (supplemented with 0.1 % (v/v) Triton X‐100 and 0.2 % (w/v) sodium taurocholate). […] The samples were denatured with Laemmli (x3) sample buffer by heating at 95 °C for 5 minutes and resolved by electrophoresis in 10 % SDS‐PAGE gels, running at 200 V for ∼50 minutes. Wet slab gels were scanned on fluorescence using an Amersham Typhoon 5 Imager (GE Healthcare) with λEX 635 nm; λEM >665 nm.
compound,measurement,setting,value
CCCCCCCCN1[C@@H]2[C@H](Cn3cc(CNC(=O)CCCCC[N+]4=C(/C=C/C=C/C=C5/N(C)c6ccccc6C5(C)C)C(C)(C)c5ccccc54)nn3)[C@@H](O)[C@H](O)[C@@H](O)[C@@H]21 (some centres unmarked) [ABP 6],IC50,[1],> 100 µM
same,lowest rhGBA concentration labelled,[2],1 nM
